pIC50: −log10 of the molar value. One block for each molecule: values may come before it. Active and inactive are the calls of the source. The rule behind the calls is not given here.
Legend:
[1] = target: T1, Matrix metalloproteinase-9 (Homo sapiens, UniProt P14780); assay: Inhibition of Matrix metalloprotease-9
Interstitial collagenase = target: T2, Interstitial collagenase (Homo sapiens, UniProt P03956); assay: Inhibition of Matrix metalloprotease-1
T2 sequence (P03956 whole entry): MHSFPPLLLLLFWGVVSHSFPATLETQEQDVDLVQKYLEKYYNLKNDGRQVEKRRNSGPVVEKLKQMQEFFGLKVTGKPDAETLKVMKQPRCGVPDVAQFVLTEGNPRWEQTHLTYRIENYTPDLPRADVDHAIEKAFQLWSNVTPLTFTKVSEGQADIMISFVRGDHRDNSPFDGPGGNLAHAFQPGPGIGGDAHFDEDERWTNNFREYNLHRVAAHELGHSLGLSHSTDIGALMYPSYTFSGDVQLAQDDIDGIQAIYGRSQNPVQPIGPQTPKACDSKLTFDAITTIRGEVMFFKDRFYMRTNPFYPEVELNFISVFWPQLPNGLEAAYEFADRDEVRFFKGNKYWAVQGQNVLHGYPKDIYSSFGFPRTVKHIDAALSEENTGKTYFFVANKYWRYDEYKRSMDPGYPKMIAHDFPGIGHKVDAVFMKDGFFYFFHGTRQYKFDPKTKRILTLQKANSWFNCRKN

Rattus norvegicus [2] = assay: Inhibitory activity against MMP-9 in rat dialysis implant bioactivity model at oral dose of 100 mg/kg; In active; format: functional, organism-based; parameters: dose 100 mg/kg
[3] = target: T3, Interstitial collagenase (Homo sapiens) (UniProt P03956); assay: Inhibition of Matrix metalloprotease-1 at 1 uM
T3 sequence (whole entry): T2 sequence (P03956 whole entry)

Rattus norvegicus [4] = assay: In vivo inhibitory activity against Matrix metalloprotease-13 in rat dialysis implant bioactivity model at a concentration of 50 mg/kg; Not active; format: functional, organism-based; parameters: dose 50 mg/kg
[5] = target: T1, Matrix metalloproteinase-9; assay: Inhibition of Matrix metalloprotease-9 at 10 uM
[6] = target: T1, Matrix metalloproteinase-9; assay: Inhibition of Matrix metalloprotease-9 at 0.3 uM
Collagenase 3 [7] = target: T4, Collagenase 3 (Homo sapiens, UniProt P45452); assay: Inhibition of Matrix metalloprotease-13 at 0.3 uM
Collagenase 3 [8] = target: T4, Collagenase 3; assay: Inhibition of Matrix metalloprotease-13

T1 sequence (P14780 whole entry): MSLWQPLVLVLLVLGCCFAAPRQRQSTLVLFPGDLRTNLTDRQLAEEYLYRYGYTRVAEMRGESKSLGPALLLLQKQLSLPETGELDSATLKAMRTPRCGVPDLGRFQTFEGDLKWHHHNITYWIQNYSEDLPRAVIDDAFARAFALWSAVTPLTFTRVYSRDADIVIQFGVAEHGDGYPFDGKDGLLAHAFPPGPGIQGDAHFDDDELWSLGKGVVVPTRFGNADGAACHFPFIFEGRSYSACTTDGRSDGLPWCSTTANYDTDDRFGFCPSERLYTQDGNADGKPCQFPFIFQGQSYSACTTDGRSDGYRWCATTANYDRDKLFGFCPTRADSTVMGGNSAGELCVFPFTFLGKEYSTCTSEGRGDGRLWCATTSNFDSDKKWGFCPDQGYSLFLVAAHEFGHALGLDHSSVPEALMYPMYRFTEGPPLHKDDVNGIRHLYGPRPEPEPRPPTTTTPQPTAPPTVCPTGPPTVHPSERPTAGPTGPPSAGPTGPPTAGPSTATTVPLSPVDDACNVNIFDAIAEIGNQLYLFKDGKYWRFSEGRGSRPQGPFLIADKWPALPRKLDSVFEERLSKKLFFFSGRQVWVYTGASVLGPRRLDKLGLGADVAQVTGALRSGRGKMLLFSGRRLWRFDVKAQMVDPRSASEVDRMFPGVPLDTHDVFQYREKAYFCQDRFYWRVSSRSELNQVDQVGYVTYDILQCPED

pIC50 [1]: 6.50
pIC50 (Interstitial collagenase): 6.44
SMILES: COc1ccc(S(=O)(=O)N(Cc2ccccc2)[C@H]2CCCC[C@H]2C(=O)NO)cc1

inhibition [3]: 50%
SMILES: COc1ccc(S(=O)(=O)N(Cc2cccnc2)c2c(C(=O)NO)csc2Br)cc1
Activity (Rattus norvegicus [2]): inactive

SMILES: COc1ccc(S(=O)(=O)N(Cc2ccccc2)c2c(C(=O)NO)cc(OC)nc2OC)cc1
Activity (Rattus norvegicus [4]): inactive

inhibition [5]: 67%
inhibition [3]: 40%
SMILES: COc1ccc(S(=O)(=O)N(Cc2ccccc2)c2cscc2C(=O)NO)cc1

inhibition [6]: 38%
inhibition (Collagenase 3 [7]): 35%
inhibition [3]: 49%
SMILES: C#Cc1scc(C(=O)NO)c1N(Cc1ccccc1)S(=O)(=O)c1ccc(OC)cc1

pIC50 [1]: 6.74
pIC50 (Interstitial collagenase): 6.76
SMILES: COc1ccc(S(=O)(=O)N(Cc2ccccc2)C2CCCC[C@H]2C(=O)NO)cc1 (some centres not stated)

inhibition [5]: 57%
inhibition [3]: 19%
SMILES: COc1ccc(S(=O)(=O)N(Cc2ccccc2)c2ccsc2C(=O)NO)cc1

pIC50 (Collagenase 3 [8]): 6.37
SMILES: COc1ccc(S(=O)(=O)N(Cc2ccccc2)c2c(C(=O)NO)csc2Br)cc1

pIC50 [1]: 6.05
inhibition [3]: 22%
SMILES: COc1ccc(S(=O)(=O)N(Cc2ccccc2)c2c(C(=O)NO)cnn2C)cc1
